Measured values reported in PubChem BioAssay (NCI).
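Method: 48-hour compound exposure of cells in 96-well plates, five concentrations, linear interpolation of endpoints. TGI is the concentration that stops growth completely.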

How the values were obtained:
Assay in all cases: growth of human tumour cells (NCI), 48 h
[1] = test system: 786-0 renal
[2] = test system: A549 NSCLC
[3] = test system: ACHN renal
[4] = test system: BT-549 breast
[5] = test system: CAKI-1 renal
[6] = test system: CCRF-CEM leukemia
[7] = test system: COLO 205 colon
[8] = test system: DLD-1 colon
[9] = test system: DMS 114 small cell lung
[10] = test system: DMS 273 small cell lung
[11] = test system: DU-145 prostate
[12] = test system: EKVX NSCLC
[13] = test system: HCC-2998 colon
[14] = test system: HCT-116 colon
[15] = test system: HCT-15 colon
[16] = test system: HL-60(TB) leukemia
[17] = test system: HOP-18 NSCLC
[18] = test system: HOP-62 NSCLC
[19] = test system: HOP-92 NSCLC
[20] = test system: HS 578T breast
[21] = test system: HT29 colon
[22] = test system: IGROV1 ovarian
[23] = test system: K-562 leukemia
[24] = test system: KM12 colon
[25] = test system: KM20L2 colon
[26] = test system: LOX IMVI melanoma
[27] = test system: LXFL 529 NSCLC
[28] = test system: M14 melanoma
[29] = test system: M19-MEL melanoma
[30] = test system: MALME-3M melanoma
[31] = test system: MCF7 breast
[32] = test system: MDA-MB-231 breast
[33] = test system: MDA-MB-435
[34] = test system: MDA-N
[35] = test system: MOLT-4 leukemia
[36] = test system: NCI-H226 lung
[37] = test system: NCI-H23 lung
[38] = test system: NCI-H460 lung
[39] = test system: NCI-H522 lung
[40] = test system: NCI/ADR-RES ovarian
[41] = test system: OVCAR-3 ovarian
[42] = test system: OVCAR-4 ovarian
[43] = test system: OVCAR-5 ovarian
[44] = test system: OVCAR-8 ovarian
[45] = test system: PC-3 prostate
[46] = test system: RPMI-8226 leukemia
[47] = test system: RXF 393 renal
[48] = test system: RXF-631 renal
[49] = test system: SF-268 CNS
[50] = test system: SF-295 CNS
[51] = test system: SF-539 CNS
[52] = test system: SK-MEL-2 melanoma
[53] = test system: SK-MEL-28 melanoma
[54] = test system: SK-MEL-5 melanoma
[55] = test system: SK-OV-3 ovarian
[56] = test system: SN12C renal
[57] = test system: SNB-19 CNS
[58] = test system: SNB-75 CNS
[59] = test system: SNB-78 CNS
[60] = test system: SR leukemia
[61] = test system: SW-620 colon
[62] = test system: T-47D breast
[63] = test system: TK-10 renal
[64] = test system: U251 CNS
[65] = test system: UACC-257 melanoma
[66] = test system: UACC-62 melanoma
[67] = test system: UO-31 renal
[68] = test system: XF 498 CNS
[69] = test system: A498 renal

CCOC1c2cc(OC)c(OC)cc2-c2ccc3ccccc3c2N1C (configuration not stated)
TGI [1]: > 64.6 µM
TGI [2]: 52.7 µM
TGI [3]: > 87.5 µM
TGI [4]: 28.6 µM
TGI [5]: > 79.7 µM
TGI [6]: > 100 µM
TGI [7]: 22.8 µM
TGI [8]: > 75.1 µM
TGI [9]: 24.6 µM
TGI [10]: 20.2 µM
TGI [11]: 52.4 µM
TGI [12]: 56.3 µM
TGI [13]: 31.3 µM
TGI [14]: 17.7 µM
TGI [15]: > 83 µM
TGI [16]: > 96.5 µM
TGI [17]: > 100 µM
TGI [18]: 42.6 µM
TGI [19]: 58.4 µM
TGI [20]: 34.1 µM
TGI [21]: 46.6 µM
TGI [22]: 63.3 µM
TGI [23]: > 100 µM
TGI [24]: 21.1 µM
TGI [25]: > 90.5 µM
TGI [26]: 41.5 µM
TGI [27]: 24.2 µM
TGI [28]: 40.2 µM
TGI [29]: 25.9 µM
TGI [30]: 24.1 µM
TGI [31]: 51 µM
TGI [32]: 36.6 µM
TGI [33]: 36.7 µM
TGI [34]: 28.6 µM
TGI [35]: > 82.7 µM
TGI [36]: 66.9 µM
TGI [37]: 28.1 µM
TGI [38]: 35.5 µM
TGI [39]: 18.3 µM
TGI [40]: 96.5 µM
TGI [41]: 50.9 µM
TGI [42]: 54.5 µM
TGI [43]: > 80.2 µM
TGI [44]: 31.6 µM
TGI [45]: 21.6 µM
TGI [46]: > 88.7 µM
TGI [47]: 58.5 µM
TGI [48]: > 56.8 µM
TGI [49]: 23.6 µM
TGI [50]: > 75.9 µM
TGI [51]: 55.6 µM
TGI [52]: 28.6 µM
TGI [53]: 28.7 µM
TGI [54]: 30.8 µM
TGI [55]: 59 µM
TGI [56]: 46.5 µM
TGI [57]: 54.7 µM
TGI [58]: 34.9 µM
TGI [59]: > 100 µM
TGI [60]: > 100 µM
TGI [61]: 49.4 µM
TGI [62]: 67.1 µM
TGI [63]: 78.3 µM
TGI [64]: 33 µM
TGI [65]: 42.1 µM
TGI [66]: 26.8 µM
TGI [67]: > 77.8 µM
TGI [68]: 31.8 µM

O=C1C=Cc2c(-c3ccccc3)oc3cccc1c23
TGI [1]: > 100 µM
TGI [69]: > 100 µM
TGI [2]: > 100 µM
TGI [3]: > 76.6 µM
TGI [5]: 48.5 µM
TGI [6]: 64.6 µM
TGI [7]: > 82.1 µM
TGI [8]: > 100 µM
TGI [9]: 89 µM
TGI [10]: > 100 µM
TGI [12]: 15.5 µM
TGI [13]: > 100 µM
TGI [14]: > 73.1 µM
TGI [15]: > 75.4 µM
TGI [16]: 27.9 µM
TGI [17]: > 100 µM
TGI [18]: > 100 µM
TGI [19]: 73.2 µM
TGI [21]: > 100 µM
TGI [22]: > 100 µM
TGI [23]: 48.1 µM
TGI [24]: > 100 µM
TGI [25]: > 100 µM
TGI [26]: > 52.7 µM
TGI [27]: > 100 µM
TGI [28]: > 100 µM
TGI [29]: > 100 µM
TGI [30]: > 100 µM
TGI [35]: 19.5 µM
TGI [36]: > 70.9 µM
TGI [37]: 62.9 µM
TGI [38]: > 80.5 µM
TGI [39]: > 81 µM
TGI [41]: > 100 µM
TGI [42]: > 100 µM
TGI [43]: > 96 µM
TGI [44]: > 100 µM
TGI [46]: 19 µM
TGI [47]: > 69 µM
TGI [48]: > 100 µM
TGI [49]: > 100 µM
TGI [50]: > 100 µM
TGI [51]: > 100 µM
TGI [52]: > 100 µM
TGI [53]: > 100 µM
TGI [54]: > 100 µM
TGI [55]: > 80.2 µM
TGI [56]: > 100 µM
TGI [57]: > 100 µM
TGI [58]: 81.8 µM
TGI [59]: > 100 µM
TGI [60]: > 54.4 µM
TGI [61]: > 100 µM
TGI [63]: > 92.2 µM
TGI [64]: > 100 µM
TGI [65]: > 100 µM
TGI [66]: 99.1 µM
TGI [67]: > 82.6 µM
TGI [68]: 67.7 µM
